Reference: US8575183B2, “Heterocyclic compounds and their uses” (priority 2010, dated 2013)
Where “and” joins values, the source holds several entries; their conditions need not be identical. Equal values may be shown once. Read-outs that look alike come from different tables or passages of the source.

Biological target: T1, PI3k δ (Homo sapiens, UniProt O00329)
T1 construct: Full length p110 subunits of PI3k α, β and δ; polyHis (N); made in house; host or cells: Sf9 insect cells (baculovirus)
Experiment: biochemical
Assay type: biochemical
Procedure: Full length p110 subunits of PI3k α, β and δ, N-terminally labeled with polyHis tag, were coexpressed with p85 with Baculo virus expression vectors in sf9 insect cells. P110/p85 heterodimers were purified by sequential Ni-NTA, Q-HP, Superdex-100 chromatography. Purified α, β and δ isozymes were stored at −20° C. in 20 mM Tris, pH 8, 0.2M NaCl, 50% glycerol, 5 mM DTT, 2 mM Na cholate. […] The γ isozyme was purified by sequential Ni-NTA, Superdex-200, Q-HP chromatography. The γ isozyme was stored frozen at −80° C. in NaH2PO4, pH 8, 0.2M NaCl, 1% ethylene glycol, 2 mM β-mercaptoethanol.
Phospatidyl inositol phosphoacceptor, Ptdlns(4,5)P2 P4508, was from Echelon Biosciences. […] Test compounds were dissolved in dimethyl sulfoxide and diluted with three-fold serial dilutions. The compound in DMSO (1 μL) was added per test well, and the inhibition relative to reactions containing no compound, with and without enzyme was determined. After assay incubation at rt, the reaction was stopped and residual ATP determined by addition of an equal volume of a commercial ATP bioluminescence kit (Perkin Elmer EasyLite) according to the manufacturer's instructions, and detected using a AnalystGT luminometer.

T1 sequence (O00329 whole entry): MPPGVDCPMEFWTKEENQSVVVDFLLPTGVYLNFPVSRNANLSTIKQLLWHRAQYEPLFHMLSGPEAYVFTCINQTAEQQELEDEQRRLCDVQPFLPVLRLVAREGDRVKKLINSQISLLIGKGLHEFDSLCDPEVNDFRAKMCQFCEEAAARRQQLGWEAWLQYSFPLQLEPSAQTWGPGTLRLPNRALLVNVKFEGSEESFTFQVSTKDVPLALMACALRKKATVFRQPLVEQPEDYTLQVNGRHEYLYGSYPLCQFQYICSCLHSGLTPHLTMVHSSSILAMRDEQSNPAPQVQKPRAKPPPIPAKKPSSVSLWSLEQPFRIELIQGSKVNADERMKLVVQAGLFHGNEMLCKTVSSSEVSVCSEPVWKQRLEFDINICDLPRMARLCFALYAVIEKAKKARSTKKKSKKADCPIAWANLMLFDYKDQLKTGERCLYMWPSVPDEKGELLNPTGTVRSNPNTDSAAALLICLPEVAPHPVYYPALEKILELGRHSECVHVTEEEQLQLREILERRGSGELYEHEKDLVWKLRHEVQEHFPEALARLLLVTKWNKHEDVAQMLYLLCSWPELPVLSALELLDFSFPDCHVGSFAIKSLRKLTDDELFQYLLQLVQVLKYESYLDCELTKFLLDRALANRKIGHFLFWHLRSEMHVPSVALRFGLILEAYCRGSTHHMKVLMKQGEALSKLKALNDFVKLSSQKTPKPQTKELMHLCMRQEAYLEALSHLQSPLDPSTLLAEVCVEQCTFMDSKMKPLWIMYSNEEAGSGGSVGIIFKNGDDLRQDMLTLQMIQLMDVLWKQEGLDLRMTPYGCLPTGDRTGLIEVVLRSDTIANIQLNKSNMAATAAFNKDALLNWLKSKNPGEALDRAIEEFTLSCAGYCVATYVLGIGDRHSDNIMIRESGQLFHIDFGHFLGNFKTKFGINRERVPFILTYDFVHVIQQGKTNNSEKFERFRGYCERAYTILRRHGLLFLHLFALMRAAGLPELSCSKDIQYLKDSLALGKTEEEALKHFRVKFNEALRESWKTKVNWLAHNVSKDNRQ
T1 sequence (P27986 whole entry partner): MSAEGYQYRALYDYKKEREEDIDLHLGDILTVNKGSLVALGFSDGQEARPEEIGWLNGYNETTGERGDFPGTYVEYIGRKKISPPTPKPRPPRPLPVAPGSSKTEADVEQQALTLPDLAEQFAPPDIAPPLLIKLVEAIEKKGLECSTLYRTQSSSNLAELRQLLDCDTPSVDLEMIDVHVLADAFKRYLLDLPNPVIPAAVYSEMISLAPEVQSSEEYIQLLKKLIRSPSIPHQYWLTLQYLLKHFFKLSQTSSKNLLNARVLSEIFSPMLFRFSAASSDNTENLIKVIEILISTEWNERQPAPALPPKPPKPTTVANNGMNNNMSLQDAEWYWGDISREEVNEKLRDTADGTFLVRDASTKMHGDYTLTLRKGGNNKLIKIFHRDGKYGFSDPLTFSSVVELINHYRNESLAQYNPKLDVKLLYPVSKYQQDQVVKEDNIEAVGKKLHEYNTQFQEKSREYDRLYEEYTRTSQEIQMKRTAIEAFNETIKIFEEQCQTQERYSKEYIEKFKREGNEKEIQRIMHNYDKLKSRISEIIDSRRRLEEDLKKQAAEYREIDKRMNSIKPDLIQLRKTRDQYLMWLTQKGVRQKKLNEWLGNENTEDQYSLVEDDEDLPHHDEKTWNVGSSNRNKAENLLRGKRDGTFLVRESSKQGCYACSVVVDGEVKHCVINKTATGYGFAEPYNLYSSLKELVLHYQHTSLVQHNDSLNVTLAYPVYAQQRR

| SMILES | Ki [nM] | Ki (read-out: PI3k δ Ki) |
| --- | --- | --- |
| C[C@@H](Nc1ncnc(N)c1C#N)c1nc2ccc(F)cc2n1-c1cncc(-c2ccccn2)c1 [4-amino-6-(((1R)-1-(1-(2,3′-bipyridin-5′-yl)-6-fluoro-1H-benzimidazol-2-yl)ethyl)amino)-5-pyrimidinecarbonitrile] | 1190 | – |
| C[C@H](Nc1ncnc(N)c1C#N)c1nc2c(F)cc(F)cc2n1-c1cccnc1 [4-amino-6-(((1S)-1-(4,6-difluoro-1-(3-pyridinyl)-1H-benzimidazol-2-yl)ethyl)amino)-5-pyrimidinecarbonitrile] | – | 6.74 nM |
| C[C@H](Nc1ncnc(N)c1C#N)c1nc2cc(F)ccc2n1-c1ccccc1 [4-amino-6-(((1S)-1-(5-fluoro-1-phenyl-1H-benzimidazol-2-yl)ethyl)amino)-5-pyrimidinecarbonitrile] | – | 1.7 nM |
| CNC(=O)c1cccc2nc([C@H](C)Nc3ncnc4[nH]cnc34)n(C3CC3)c12 [1-cyclopropyl-N-methyl-2-((1S)-1-(9H-purin-6-ylamino)ethyl)-1H-benzimidazole-7-carboxamide] | – | 14.6 nM |
| C[C@H](Nc1ncnc(N)c1C#N)c1nc2cccc(Br)c2n1-c1cncc(F)c1 [4-amino-6-(((1S)-1-(7-bromo-1-(5-fluoro-3-pyridinyl)-1H-benzimidazol-2-yl)ethyl)amino)-5-pyrimidinecarbonitrile] | – | 48.1 nM |
| C[C@H](Nc1ncnc(N)c1C#N)c1nc2ncccc2n1-c1ccccn1 [4-amino-6-(((1S)-1-(1-(2-pyridinyl)-1H-imidazo[4,5-b]pyridin-2-yl)ethyl)amino)-5-pyrimidinecarbonitrile] | – | 1620 nM |
| C[C@@H](Nc1ncnc(N)c1C#N)c1nc2ccc(F)cc2n1-c1cccc(-c2ccccn2)c1 [4-amino-6-(((1R)-1-(6-fluoro-1-(3-(2-pyridinyl)phenyl)-1H-benzimidazol-2-yl)ethyl)amino)-5-pyrimidinecarbonitrile] | – | 132 nM |
| C[C@H](Nc1ncnc(N)c1C#N)c1nc2ccc(F)cc2n1-c1cccc(C#N)c1 [4-amino-6-(((1S)-1-(1-(3-cyanophenyl)-6-fluoro-1H-benzimidazol-2-yl)ethyl)amino)-5-pyrimidinecarbonitrile] | – | 18.8 nM |
| C[C@H](Nc1ncnc(N)c1C#N)c1nc2ccc(F)cc2n1-c1cccc(-c2ccccn2)c1 [4-amino-6-(((1S)-1-(6-fluoro-1-(3-(2-pyridinyl)phenyl)-1H-benzimidazol-2-yl)ethyl)amino)-5-pyrimidinecarbonitrile] | – | 8.9 nM and 3.8 nM |
| C[C@H](Nc1ncnc(N)c1C#N)c1nc2c(S(C)(=O)=O)cccc2n1Cc1ccc(F)cc1 [4-amino-6-(((1S)-1-(1-(4-fluorobenzyl)-4-(methylsulfonyl)-1H-benzimidazol-2-yl)ethyl)amino)-5-pyrimidinecarbonitrile] | – | 2410 nM |
| C[C@H](Nc1ncnc(N)c1C#N)c1nc2ccc(F)cc2n1-c1cncc(NS(C)(=O)=O)c1 [N-(5-(2-((1S)-1-((6-amino-5-cyano-4-pyrimidinyl)amino)ethyl)-6-fluoro-1H-benzimidazol-1-yl)-3-pyridinyl)methanesulfonamide] | – | 11.9 nM |
| C[C@H](Nc1ncnc(N)c1C#N)c1nc2cc(F)c(F)cc2n1-c1cncc(F)c1 [4-amino-6-(((1S)-1-(5,6-difluoro-1-(5-fluoro-3-pyridinyl)-1H-benzimidazol-2-yl)ethyl)amino)-5-pyrimidinecarbonitrile] | – | 57.5 nM |
| CNC(=O)c1cccc2nc([C@H](C)Nc3ncnc(N)c3C#N)c(-c3ccccc3)n12 [2-((1S)-1-((6-amino-5-cyano-4-pyrimidinyl)amino)ethyl)-N-methyl-3-phenylimidazo[1,2-a]pyridine-5-carboxamide] | – | 26.2 nM |
| C[C@H](Nc1ncnc2[nH]cnc12)c1nc2cccc(F)c2[nH]1 [N-((1S)-1-(7-fluoro-1H-benzimidazol-2-yl)ethyl)-9H-purin-6-amine] | – | 650 nM |
| COC(=O)c1cccc2nc([C@H](C)Nc3ncnc(N)c3C#N)c(-c3cncc(F)c3)n12 [methyl 2-((1S)-1-((6-amino-5-cyano-4-pyrimidinyl)amino)ethyl)-3-(5-fluoro-3-pyridinyl)imidazo[1,2-a]pyridine-5-carboxylate] | – | 314 nM |
| C[C@H](Nc1ncnc(N)c1C#N)c1nc2c(F)cc(F)cc2n1-c1cc(F)cc(F)c1 [4-amino-6-(((1S)-1-(1-(3,5-difluorophenyl)-4,6-difluoro-1H-benzimidazol-2-yl)ethyl)amino)-5-pyrimidinecarbonitrile] | – | 2.6 nM |
| CNC(=O)c1cccc2nc([C@@H](C)Nc3ncnc(N)c3C#N)n(-c3cncc(F)c3)c12 [2-((1R)-1-((6-amino-5-cyano-4-pyrimidinyl)amino)ethyl)-1-(5-fluoro-3-pyridinyl)-N-methyl-1H-benzimidazole-7-carboxamide] | – | 1370 nM |

| SMILES | Ki [nM] | Ki (read-out: PI3k δ Ki) |
| --- | --- | --- |
| CSc1cccc(-n2c([C@H](C)Nc3ncnc(N)c3C#N)nc3cc(F)ccc32)c1 [4-amino-6-(((1S)-1-(5-fluoro-1-(3-(methylsulfanyl)phenyl)-1H-benzimidazol-2-yl)ethyl)amino)-5-pyrimidinecarbonitrile] | – | 44.1 nM |
| C[C@H](Nc1ncnc(N)c1C#N)c1nc2cccc(C(=O)NC3CCCC3)c2n1C1CC1 [2-((1S)-1-((6-amino-5-cyano-4-pyrimidinyl)amino)ethyl)-N-cyclopentyl-1-cyclopropyl-1H-benzimidazole-7-carboxamide] | – | 18.4 nM |
| C[C@@H](Nc1ncnc(N)c1C#N)c1nc2cccc(C#N)c2n1-c1cncc(F)c1 [2-((1R)-1-((6-amino-5-cyano-4-pyrimidinyl)amino)ethyl)-1-(5-fluoro-3-pyridinyl)-1H-benzimidazole-7-carbonitrile] | – | 325 nM |
| C[C@@H](Nc1ncnc(N)c1C#N)c1nc2c(F)cc(F)cc2n1-c1cccnc1 [4-amino-6-(((1R)-1-(4,6-difluoro-1-(3-pyridinyl)-1H-benzimidazol-2-yl)ethyl)amino)-5-pyrimidinecarbonitrile] | – | 1290 nM |
| N#Cc1c(N)ncnc1NCc1nc2c(Cl)cccn2c1-c1ccccc1 [4-amino-6-(((8-chloro-3-phenylimidazo[1,2-a]pyridin-2-yl)methyl)amino)-5-pyrimidinecarbonitrile] | – | 230 nM |
| CC[C@H](Nc1ncnc(N)c1C#N)c1nc2cccc(C(=O)NC)c2n1C1CC1 [2-((1S)-1-((6-amino-5-cyano-4-pyrimidinyl)amino)propyl)-1-cyclopropyl-N-methyl-1H-benzimidazole-7-carboxamide] | – | 39 nM |
| C[C@H](Nc1ncnc(N)c1C#N)c1nc2cccc(C(=O)NC3CC3)n2c1-c1ccccc1 [2-((1S)-1-((6-amino-5-cyano-4-pyrimidinyl)amino)ethyl)-N-cyclopropyl-3-phenylimidazo[1,2-a]pyridine-5-carboxamide] | – | 17.4 nM |
| C[C@@H](Nc1ncnc(N)c1C#N)c1nc2cccc(S(C)(=O)=O)c2n1C1CC1 [4-amino-6-(((1R)-1-(1-cyclopropyl-7-(methylsulfonyl)-1H-benzimidazol-2-yl)ethyl)amino)-5-pyrimidinecarbonitrile] | – | 1000 nM |
| COC(=O)c1cccc2nc([C@H](C)Nc3ncnc(N)c3C#N)c(-c3ccccc3)n12 [methyl 2-((1S)-1-((6-amino-5-cyano-4-pyrimidinyl)amino)ethyl)-3-phenylimidazo[1,2-a]pyridine-5-carboxylate] | – | 39 nM |
| C[C@H](Nc1ncnc2[nH]cnc12)c1nc2ccc(Cl)cc2n1-c1cc(F)cc(F)c1 [N-((1S)-1-(6-chloro-1-(3,5-difluorophenyl)-1H-benzimidazol-2-yl)ethyl)-9H-purin-6-amine] | – | 8.4 nM |
| CC[C@H](Nc1ncnc(N)c1C#N)c1nc2cccc(C(F)(F)F)c2n1CC1CC1 [4-amino-6-(((1S)-1-(1-(cyclopropylmethyl)-7-(trifluoromethyl)-1H-benzimidazol-2-yl)propyl)amino)-5-pyrimidinecarbonitrile] | – | 53.1 nM |
| C[C@@H](Nc1ncnc(N)c1C#N)c1nc2c(F)cc(F)cc2n1-c1cc(F)cc(F)c1 [4-amino-6-(((1R)-1-(1-(3,5-difluorophenyl)-4,6-difluoro-1H-benzimidazol-2-yl)ethyl)amino)-5-pyrimidinecarbonitrile] | – | 251 nM |
| C[C@H](Nc1ncnc(N)c1C#N)c1nc2cccc(C(=O)NC3CC3)c2n1C1CC1 [2-((1S)-1-((6-amino-5-cyano-4-pyrimidinyl)amino)ethyl)-N,1-dicyclopropyl-1H-benzimidazole-7-carboxamide] | – | 17.5 nM |
| C[C@H](Nc1ncnc(N)c1C#N)c1nc2cccc(C(=O)N3CCN(C)CC3)n2c1-c1ccccc1 [4-amino-6-(((1S)-1-(5-((4-methyl-1-piperazinyl)carbonyl)-3-phenylimidazo[1,2-a]pyridin-2-yl)ethyl)amino)-5-pyrimidinecarbonitrile] | – | 11.8 nM |
| CC[C@H](Nc1ncnc(N)c1C#N)c1nc2cccc(S(C)(=O)=O)c2n1CC1CC1 [4-amino-6-(((1S)-1-(1-(cyclopropylmethyl)-7-(methylsulfonyl)-1H-benzimidazol-2-yl)propyl)amino)-5-pyrimidinecarbonitrile] | – | 2.19 nM |
| C[C@H](Nc1ncnc(N)c1C#N)c1nc2cccc(F)c2[nH]1 [4-amino-6-(((1S)-1-(7-fluoro-1H-benzimidazol-2-yl)ethyl)amino)-5-pyrimidinecarbonitrile] | – | 173 nM |
| C[C@H](Nc1ncnc(N)c1C#N)c1nc2cnccn2c1-c1ccccn1 [4-amino-6-(((1S)-1-(3-(2-pyridinyl)imidazo[1,2-a]pyrazin-2-yl)ethyl)amino)-5-pyrimidinecarbonitrile] | – | 2160 nM |
